# Assay results reported in patent US6737383B1, “Herbicidal oxadiazolidines” (priority 1999, dated 2004).
# Tests used:
# [1] = system: cocklebur; assay: Test B pre/postemergence cocklebur; format: in vivo, Xanthium strumarium
# Method in brief: (§1)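 Herbicidal effect was estimated by eye on a ten-point control scale after plants spent twelve to sixteen days in a greenhouse following soil or foliar treatment. Foliar sprays targeted plants at one to four leaves; all doses were formulated in a non-phytotoxic solvent with surfactant.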
# [2] = system: morningglory; assay: Test B pre/postemergence morningglory; format: in vivo, Ipomoea hederacea
# Method in brief: as §1
# [3] = system: pigweed; assay: Test B pre/postemergence pigweed; format: in vivo, Amaranthus retroflexus
# Method in brief: as §1
# [4] = system: soybean; assay: Test B pre/postemergence soybean; format: in vivo, Glycine max
# Method in brief: as §1
# [5] = system: winter wheat; assay: Test E winter wheat; format: in vivo, Triticum aestivum; conditions: Postemergence; for Wheat (winter) plant response rating: Rate 250 g/ha
# Method in brief: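 Compound formulated with surfactant in a non-phytotoxic solvent (postemergence: young 1- to 4-leaf plants); held in greenhouse approx. 21–28 days; visual assessment against untreated plants.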
# [6] = system: blackgrass; assay: Test E blackgrass; format: in vivo, Alopecurus myosuroides; conditions: Preemergence; for Blackgrass plant response rating (0 to 100 scale): Rate 250 g/ha
# [7] = system: green foxtail; assay: Test E green foxtail; format: in vivo, Setaria viridis; conditions: Preemergence; for Green foxtail plant response rating (0 to 100 scale): Rate 250 g/ha
# [8] = system: Italian ryegrass; assay: Test E Italian ryegrass; format: in vivo, Lolium multiflorum; conditions: Preemergence; for I. Ryegrass plant response rating (0 to 100 scale): Rate 250 g/ha
# [9] = system: winter wheat; assay: Test E winter wheat; format: in vivo, Triticum aestivum; conditions: Preemergence; for Wheat (winter) plant response rating (0 to 100 scale): Rate 250 g/ha
# [10] = system: wild oat; assay: Test E wild oat; format: in vivo, Avena fatua; conditions: Preemergence; for Wild oat plant response rating (0 to 100 scale): Rate 250 g/ha
# [11] = system: winter barley; assay: Test E winter barley; format: in vivo, Hordeum vulgare; conditions: Preemergence; for Barley (winter) plant response rating (0 to 100 scale): Rate 250 g/ha
# [12] = Preemergence, Rate 62 g/ha, scale of 0 to 10 where 0 is no effect and 10 is complete control
# [13] = Preemergence, Rate 250 g/ha, scale of 0 to 10 where 0 is no effect and 10 is complete control
# [14] = Preemergence, Rate 500 g/ha, scale of 0 to 10 where 0 is no effect and 10 is complete control
# [15] = Rate 125 g/ha, Postemergence, scale of 0 to 10 where 0 is no effect and 10 is complete control
# [16] = Rate 125 g/ha, Preemergence, scale of 0 to 10 where 0 is no effect and 10 is complete control
# [17] = Rate 250 g/ha, Postemergence, scale of 0 to 10 where 0 is no effect and 10 is complete control
# [18] = Rate 500 g/ha, Postemergence, scale 0 to 10, 0 no effect, 10 complete control
# [19] = Rate 1000 g/ha, 0 to 100 scale where 0 is no effect and 100 is complete control
# [20] = 0 to 100 scale where 0 is no effect and 100 is complete control
# [21] = Rate 500 g/ha, 0 to 100 scale, 0 is no effect, 100 is complete control
# [22] = Rate 125 g/ha, 0 to 100 scale (0 no effect, 100 complete control)
# [23] = Rate 500 g/ha, 0 to 100 scale where 0 is no effect and 100 is complete control
# [24] = Rate 1000 g/ha, 0 to 100 scale, 0 no effect, 100 complete control
# [25] = Rate 62 g/ha, Postemergence, scale 0 to 10 (0 no effect, 10 complete control)
# [26] = Rate 500 g/ha, 0 to 100 scale (0 no effect, 100 complete control)
smiles,measurement,setting,value
CC(C)N(C(=O)n1oc(=O)n(C2CCCC2)c1=O)c1ccc(F)cc1 [Compound 271],Cocklebur plant response rating,[1]; [12],0
same,Cocklebur plant response rating,[1]; [13],0
same,"Plant response rating, Cocklebur",[1]; [14],4
same,Cocklebur plant response rating,"[1]; Rate 62 g/ha, Postemergence, scale of 0 to 10 where 0 is no effect and 10 is complete control",0
same,Cocklebur plant response rating,[1]; [15],0
same,Cocklebur plant response rating,[1]; [16],0
same,"Plant response rating, Cocklebur",[1]; [17],1
same,Cocklebur plant response rating,[1]; [18],4
same,Morningglory plant response rating,[2]; [12],1
same,Morningglory plant response rating,[2]; [13],2
same,"Plant response rating, Morningglory",[2]; [14],7
same,Morningglory plant response rating,[2]; [15],2
same,Morningglory plant response rating,[2]; [16],1
same,"Plant response rating, Morningglory",[2]; [17],8
same,Morningglory plant response rating,[2]; [18],8
same,Redroot pigweed plant response rating,[3]; [12],3
same,Redroot pigweed plant response rating,[3]; [13],10
same,"Plant response rating, Redroot pigweed",[3]; [14],10
same,Redroot pigweed plant response rating,[3]; [15],5
same,Redroot pigweed plant response rating,[3]; [16],8
same,"Plant response rating, Redroot pigweed",[3]; [17],7
same,Redroot pigweed plant response rating,[3]; [18],8
same,Soybean plant response rating,[4]; [12],0
same,Soybean plant response rating,[4]; [13],0
same,"Plant response rating, Soybean",[4]; [14],1
same,Soybean plant response rating,[4]; [15],5
same,Soybean plant response rating,[4]; [16],0
same,"Plant response rating, Soybean",[4]; [17],5
same,Soybean plant response rating,[4]; [18],6
same,"Plant response rating, Wheat (winter)","[5]; Rate 125 g/ha, 0 to 100 scale, 0 is no effect, 100 is complete control",10
same,"Plant response rating, Wheat (winter)",[5]; [19],0
same,Wheat (winter) plant response rating,[5]; [20],10
same,"Plant response rating, Wheat (winter)",[5]; [21],0
same,"Plant response rating, Blackgrass",[6]; [22],30
same,Blackgrass plant response rating (0 to 100 scale),[6],100
same,"Plant response rating, Blackgrass",[6]; [23],80
same,"Plant response rating, Blackgrass",[6]; [24],100
same,"Plant response rating, Green foxtail",[7]; [22],70
same,Green foxtail plant response rating (0 to 100 scale),[7],100
same,"Plant response rating, Green foxtail",[7]; [23],100
same,"Plant response rating, Green foxtail",[7]; [24],100
same,"Plant response rating, I. Ryegrass",[8]; [22],60
same,I. Ryegrass plant response rating (0 to 100 scale),[8],100
same,"Plant response rating, I. Ryegrass",[8]; [23],85
same,"Plant response rating, I. Ryegrass",[8]; [24],100
same,"Plant response rating, Wheat (winter)",[9]; [22],30
same,Wheat (winter) plant response rating (0 to 100 scale),[9],60
same,"Plant response rating, Wheat (winter)",[9]; [23],50
same,"Plant response rating, Wheat (winter)",[9]; [24],75
same,"Plant response rating, Wild oat",[10]; [22],50
same,Wild oat plant response rating (0 to 100 scale),[10],60
same,"Plant response rating, Wild oat",[10]; [23],65
same,"Plant response rating, Wild oat",[10]; [24],60
same,"Plant response rating, Barley (winter)",[11]; [22],35
same,Barley (winter) plant response rating (0 to 100 scale),[11],45
same,"Plant response rating, Barley (winter)",[11]; [23],50
same,"Plant response rating, Barley (winter)",[11]; [24],60
CC1Cc2cccc(-n3c(=O)on(C(=O)N(c4ccc(F)cc4)C(C)C)c3=O)c2O1 (stereo not shown) [Compound 281],Cocklebur plant response rating,[1]; [13],0
same,"Plant response rating, Cocklebur",[1]; [14],0
same,Cocklebur plant response rating,[1]; [25],0
same,Cocklebur plant response rating,[1]; [15],0
same,"Plant response rating, Cocklebur",[1]; [17],0
same,Cocklebur plant response rating,[1]; [18],0
same,Morningglory plant response rating,[2]; [12],0
same,Morningglory plant response rating,[2]; [13],0
same,"Plant response rating, Morningglory",[2]; [14],0
same,Morningglory plant response rating,[2]; [25],2
same,Morningglory plant response rating,[2]; [15],2
same,Morningglory plant response rating,[2]; [16],0
same,"Plant response rating, Morningglory",[2]; [17],3
same,Morningglory plant response rating,[2]; [18],5
same,Redroot pigweed plant response rating,[3]; [12],0
same,Redroot pigweed plant response rating,[3]; [13],0
same,"Plant response rating, Redroot pigweed",[3]; [14],0
same,Redroot pigweed plant response rating,[3]; [25],0
same,Redroot pigweed plant response rating,[3]; [15],2
same,Redroot pigweed plant response rating,[3]; [16],0
same,"Plant response rating, Redroot pigweed",[3]; [17],5
same,Redroot pigweed plant response rating,[3]; [18],6
same,Soybean plant response rating,[4]; [12],0
same,Soybean plant response rating,[4]; [13],0
same,"Plant response rating, Soybean",[4]; [14],0
same,Soybean plant response rating,[4]; [25],2
same,Soybean plant response rating,[4]; [16],0
same,"Plant response rating, Soybean",[4]; [17],3
same,Soybean plant response rating,[4]; [18],3
same,"Plant response rating, Wheat (winter)",[5]; [19],80
same,Wheat (winter) plant response rating,[5]; [20],55
same,"Plant response rating, Wheat (winter)",[5]; [21],70
same,Blackgrass plant response rating (0 to 100 scale),[6],50
same,"Plant response rating, Blackgrass",[6]; [24],50
same,Green foxtail plant response rating (0 to 100 scale),[7],100
same,"Plant response rating, Green foxtail",[7]; [26],100
same,"Plant response rating, Green foxtail",[7]; [24],100
same,I. Ryegrass plant response rating (0 to 100 scale),[8],60
same,"Plant response rating, I. Ryegrass",[8]; [26],60
same,"Plant response rating, I. Ryegrass",[8]; [24],60
same,Wheat (winter) plant response rating (0 to 100 scale),[9],60
same,"Plant response rating, Wheat (winter)",[9]; [26],65
same,"Plant response rating, Wheat (winter)",[9]; [24],80
same,Wild oat plant response rating (0 to 100 scale),[10],70
same,"Plant response rating, Wild oat",[10]; [26],65
same,"Plant response rating, Wild oat",[10]; [24],80
same,Barley (winter) plant response rating (0 to 100 scale),[11],70
same,"Plant response rating, Barley (winter)",[11]; [26],70
same,"Plant response rating, Barley (winter)",[11]; [24],80
